In brackets after ≈: the same amount, converted by molar mass. Entries after “also recorded” stand apart in the source; their conditions may differ. Read-outs that look alike come from different tables or passages of the source.
Tests used:
sAPPα in SH-SY5Y cells = test: Primary screen, effect on sAPPα in SH-SY5Y cells (AlphaLISA); type: cell-based, human
Source text: (§1) Compound C41 was initially identified by screening a library of compounds in a series of steps. First compounds were screened in a primary screen to determine the effect on sAPPα in SH-SYSY cells (see, e.g., FIG. 4). Compounds that elicited an increase in sAPPα of at least 10% were subjected to a secondary screen in CHO-7W cells for their effect on sAPPα and Aβ (see, e.g., FIG. 5).

in vitro = test: in vitro
Method: The second batch of C41 was tested for plasma protein binding, ADME-tox screening (microsomal intrinsic clearance), and ADME-tox screening (CYP inhibition screen). PK in rats was determined to determine a dose of non-GLP Pharm-Tox screening. Additionally, acute toxicity in rats (pre-subchronic toxicity) and non-GLP subchronic toxicity was determined.

α7 = α7 (Homo sapiens, UniProt P36544); test: Target binding α7
Sequence of α7 (P36544 23-502): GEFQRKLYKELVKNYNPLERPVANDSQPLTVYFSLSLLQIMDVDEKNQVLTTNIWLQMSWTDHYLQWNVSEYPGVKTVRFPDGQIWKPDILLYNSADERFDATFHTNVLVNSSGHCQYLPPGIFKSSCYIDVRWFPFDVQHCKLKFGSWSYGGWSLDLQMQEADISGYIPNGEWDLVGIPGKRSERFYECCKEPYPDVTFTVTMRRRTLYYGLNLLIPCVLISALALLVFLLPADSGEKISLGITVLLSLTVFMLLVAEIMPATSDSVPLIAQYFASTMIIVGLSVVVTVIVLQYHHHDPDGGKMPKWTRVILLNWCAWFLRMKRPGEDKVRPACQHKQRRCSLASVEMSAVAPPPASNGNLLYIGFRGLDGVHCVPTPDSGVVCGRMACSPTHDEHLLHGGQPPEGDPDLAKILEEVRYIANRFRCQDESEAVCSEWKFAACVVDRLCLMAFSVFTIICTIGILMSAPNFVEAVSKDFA

AD model mouse = test: In vivo study of C41 and F03 in an AD model mouse
Source text: Panel A: Novel object preference; Panel B: Novel location preference; Panel C: sAPPα.
Panel A: sAPPβ; Panel B: the sAPPα/sAPPβ ratio.
Compounds meeting the initial screening criteria were then subjected to in vivo testing.

CYP2C19 = CYP2C19 (Homo sapiens, UniProt P33261); test: CYP inhibition screen CYP2C19; type: in vitro ADME; conditions: human, read-out: CYP2C19 inhibition
Sequence of CYP2C19 (P33261 whole entry): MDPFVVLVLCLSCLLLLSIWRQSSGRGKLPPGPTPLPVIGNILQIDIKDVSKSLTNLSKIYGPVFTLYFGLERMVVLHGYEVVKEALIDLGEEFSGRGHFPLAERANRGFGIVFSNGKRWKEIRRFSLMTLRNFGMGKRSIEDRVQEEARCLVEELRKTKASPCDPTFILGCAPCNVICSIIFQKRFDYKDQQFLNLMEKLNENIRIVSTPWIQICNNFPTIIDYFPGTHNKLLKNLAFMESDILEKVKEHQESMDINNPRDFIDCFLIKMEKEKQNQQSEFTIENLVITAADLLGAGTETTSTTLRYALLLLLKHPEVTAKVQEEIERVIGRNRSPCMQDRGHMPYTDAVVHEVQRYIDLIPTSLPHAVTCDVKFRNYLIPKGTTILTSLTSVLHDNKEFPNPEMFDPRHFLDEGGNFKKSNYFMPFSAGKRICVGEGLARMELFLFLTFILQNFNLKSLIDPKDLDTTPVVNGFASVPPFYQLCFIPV

5-HT3 = biological target: T1, 5-HT3 (Homo sapiens, UniProt P46098); test: Target binding 5-HT3; conditions: target binding
T1 sequence (P46098 24-478): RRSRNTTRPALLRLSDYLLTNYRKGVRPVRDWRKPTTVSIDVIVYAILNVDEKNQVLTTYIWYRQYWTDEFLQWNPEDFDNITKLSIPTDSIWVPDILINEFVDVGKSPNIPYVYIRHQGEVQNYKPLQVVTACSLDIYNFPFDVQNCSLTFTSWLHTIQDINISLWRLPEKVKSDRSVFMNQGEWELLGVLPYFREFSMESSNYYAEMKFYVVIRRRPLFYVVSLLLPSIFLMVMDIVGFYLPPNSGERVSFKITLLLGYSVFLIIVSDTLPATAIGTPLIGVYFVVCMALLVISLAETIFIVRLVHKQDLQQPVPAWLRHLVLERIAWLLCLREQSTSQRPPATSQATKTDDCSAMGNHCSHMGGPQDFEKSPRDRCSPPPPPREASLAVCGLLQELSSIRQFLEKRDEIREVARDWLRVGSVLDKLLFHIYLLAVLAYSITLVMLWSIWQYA

CYP2D6 = CYP2D6 (Homo sapiens, UniProt P10635); test: CYP inhibition screen CYP2D6; type: in vitro ADME; conditions: human, read-out: CYP2D6 inhibition
Sequence of CYP2D6 (P10635 whole entry): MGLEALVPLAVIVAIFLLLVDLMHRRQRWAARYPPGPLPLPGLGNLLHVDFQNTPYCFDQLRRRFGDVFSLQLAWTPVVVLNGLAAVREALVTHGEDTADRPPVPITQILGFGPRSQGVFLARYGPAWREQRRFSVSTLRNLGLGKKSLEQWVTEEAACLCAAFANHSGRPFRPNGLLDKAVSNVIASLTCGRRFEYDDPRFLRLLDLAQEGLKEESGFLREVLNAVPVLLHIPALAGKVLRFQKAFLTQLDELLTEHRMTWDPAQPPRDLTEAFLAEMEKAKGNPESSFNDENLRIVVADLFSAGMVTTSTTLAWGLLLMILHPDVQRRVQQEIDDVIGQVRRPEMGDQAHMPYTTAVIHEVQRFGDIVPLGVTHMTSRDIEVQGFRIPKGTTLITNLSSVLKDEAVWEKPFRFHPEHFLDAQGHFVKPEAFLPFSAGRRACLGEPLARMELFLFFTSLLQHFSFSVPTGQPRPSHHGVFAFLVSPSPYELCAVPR

[1] = reported; cited from earlier work
[2] = tested on: sAPPα, Aβ1-42 in CHO-7W cells; test: Secondary screen, sAPPα and Aβ in CHO-7W cells; type: cell-based
Source text: as §1

CYP1A2 = biological target: T2, CYP1A2 (Homo sapiens, UniProt P05177); test: CYP inhibition screen CYP1A2; type: in vitro ADME; conditions: human, read-out: CYP1A2 inhibition
T2 sequence (P05177 1-516): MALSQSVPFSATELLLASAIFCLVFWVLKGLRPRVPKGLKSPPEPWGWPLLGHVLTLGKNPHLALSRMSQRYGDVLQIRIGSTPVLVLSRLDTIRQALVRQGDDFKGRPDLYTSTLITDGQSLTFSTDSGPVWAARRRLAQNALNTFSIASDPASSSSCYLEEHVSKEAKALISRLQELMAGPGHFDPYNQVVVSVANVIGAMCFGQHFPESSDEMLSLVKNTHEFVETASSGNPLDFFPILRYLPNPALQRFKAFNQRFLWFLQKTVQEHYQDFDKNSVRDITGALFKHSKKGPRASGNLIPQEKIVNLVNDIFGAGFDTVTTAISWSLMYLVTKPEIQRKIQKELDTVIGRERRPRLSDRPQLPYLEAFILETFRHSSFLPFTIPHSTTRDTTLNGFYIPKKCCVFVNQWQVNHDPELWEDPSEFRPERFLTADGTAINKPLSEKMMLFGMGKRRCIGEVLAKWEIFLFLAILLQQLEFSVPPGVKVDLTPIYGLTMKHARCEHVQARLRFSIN

AD mouse model = test: Synaptic load, synaptophysin labeling of hippocampus; type: in vivo
Method: FIG. 16 illustrates mechanistic confirmation studies for determination of synaptic load.
Mechanistic confirmation studies for determination of synaptic load were performed using antibody-labeling of synaptophysin with a green fluorescent tag. […] The improvements in NLR and NOR may be correlated to the restoration of synaptic load, increases in sAPPα or the sAPPα/sAPPβ ratio; increases in the sAPPα/Aβ1-42 ratio; decreases in the p-tau/tau ratio, and/or decreases in APPneo (c-terminal cleavage).

APP = APP (Homo sapiens, UniProt P05067); test: Target binding APP
Sequence of APP (P05067 18-770, species assumed): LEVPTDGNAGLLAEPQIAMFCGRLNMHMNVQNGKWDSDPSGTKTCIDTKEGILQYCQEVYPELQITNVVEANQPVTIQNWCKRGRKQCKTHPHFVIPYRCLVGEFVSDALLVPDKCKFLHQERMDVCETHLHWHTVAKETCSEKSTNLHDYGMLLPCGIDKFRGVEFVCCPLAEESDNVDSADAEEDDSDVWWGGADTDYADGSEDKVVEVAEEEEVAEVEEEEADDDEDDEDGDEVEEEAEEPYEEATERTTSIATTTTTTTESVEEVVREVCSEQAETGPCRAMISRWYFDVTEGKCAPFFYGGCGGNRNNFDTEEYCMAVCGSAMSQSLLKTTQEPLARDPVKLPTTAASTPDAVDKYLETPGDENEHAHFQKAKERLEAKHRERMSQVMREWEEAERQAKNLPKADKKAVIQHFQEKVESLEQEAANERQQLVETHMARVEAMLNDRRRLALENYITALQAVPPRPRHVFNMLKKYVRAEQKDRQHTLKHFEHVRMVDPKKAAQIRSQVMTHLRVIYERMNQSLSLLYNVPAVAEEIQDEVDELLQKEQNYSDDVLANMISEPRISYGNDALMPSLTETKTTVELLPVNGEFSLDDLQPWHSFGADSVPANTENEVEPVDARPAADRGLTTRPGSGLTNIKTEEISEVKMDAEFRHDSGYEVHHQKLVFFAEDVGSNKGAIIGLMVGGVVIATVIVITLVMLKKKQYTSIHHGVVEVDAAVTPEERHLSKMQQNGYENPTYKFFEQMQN

CYP2C9 = CYP2C9 (Homo sapiens, UniProt P11712); test: CYP inhibition screen CYP2C9; type: in vitro ADME; conditions: human, read-out: CYP2C9 inhibition
Sequence of CYP2C9 (P11712 whole entry): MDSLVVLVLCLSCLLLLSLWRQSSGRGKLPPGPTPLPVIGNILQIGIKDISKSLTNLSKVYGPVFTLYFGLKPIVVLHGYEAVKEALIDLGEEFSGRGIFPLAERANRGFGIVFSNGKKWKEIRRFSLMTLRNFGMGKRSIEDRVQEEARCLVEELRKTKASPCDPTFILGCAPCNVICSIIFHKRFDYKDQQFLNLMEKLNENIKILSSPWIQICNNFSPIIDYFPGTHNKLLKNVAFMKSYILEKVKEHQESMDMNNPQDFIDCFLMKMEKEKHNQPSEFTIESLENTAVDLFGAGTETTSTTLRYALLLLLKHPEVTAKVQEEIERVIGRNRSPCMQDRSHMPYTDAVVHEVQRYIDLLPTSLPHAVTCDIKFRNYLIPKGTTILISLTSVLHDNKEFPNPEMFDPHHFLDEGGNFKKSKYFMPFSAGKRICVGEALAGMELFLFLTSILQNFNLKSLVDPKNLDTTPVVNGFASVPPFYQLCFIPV

CYP3A4 = CYP3A4 (Homo sapiens, UniProt P08684); test: CYP inhibition screen CYP3A4; type: in vitro ADME; conditions: human
Sequence of CYP3A4 (P08684 whole entry): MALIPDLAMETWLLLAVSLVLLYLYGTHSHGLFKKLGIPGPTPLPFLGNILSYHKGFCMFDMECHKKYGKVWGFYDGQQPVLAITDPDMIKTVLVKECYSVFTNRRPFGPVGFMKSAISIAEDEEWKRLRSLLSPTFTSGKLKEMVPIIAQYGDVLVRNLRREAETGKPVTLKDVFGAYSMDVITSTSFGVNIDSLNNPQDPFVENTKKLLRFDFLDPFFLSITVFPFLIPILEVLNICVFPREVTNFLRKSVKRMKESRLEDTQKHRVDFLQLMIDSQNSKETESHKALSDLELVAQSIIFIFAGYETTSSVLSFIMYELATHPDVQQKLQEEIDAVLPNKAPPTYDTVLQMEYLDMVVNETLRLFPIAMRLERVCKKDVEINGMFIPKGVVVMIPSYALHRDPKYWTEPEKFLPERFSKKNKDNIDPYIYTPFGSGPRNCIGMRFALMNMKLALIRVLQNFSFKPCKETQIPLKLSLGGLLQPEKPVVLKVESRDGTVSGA

[3] = dog, microsomes, NADPH-Dependent CLint
[4] = dog, microsomes, NADPH-Free CLint
[5] = rat, microsomes, NADPH-Dependent CLint
[6] = rat, microsomes, NADPH-Free CLint
[7] = midazolam, read-out: CYP3A4 midazolam inhibition
[8] = testosterone, read-out: CYP3A4 testosterone inhibition

In the case of `CN1C2CC[C@H]1C[C@@H](OC(=O)c1c[nH]c3cc(F)ccc13)C2.Cl` [C41 HCl, (1R,3R,5S)-8-methyl-8-azabicyclo[3.2.1]octan-3-yl 6-fluoro-1H-indole-3-carboxylate hydrochloride], the “effect on sAPPα in SH-SY5Y cells” value (sAPPα in SH-SY5Y cells; 1 μm, 24 hours) is reported as “increase sAPPα similar to C41 (first batch) and to F03”.
In the case of `CC(C)NCC(O)COc1cccc2ccccc12` (centres unmarked) [propranolol, reference compound], the “Mean Plasma Fraction Bound” value (in vitro; human, plasma) is reported as 81.6% and the fraction unbound (in vitro; human, plasma) is reported as 0.184.
In the case of `CN1[C@@H]2CC[C@H]1C[C@@H](OC(=O)c1c[nH]c3ccccc13)C2` [Compound F03, tropisetron, reference compound], the solubility (Solubility in water) is reported as 100 mM (≈ 28.4 mg/mL), the “Target α7” value (α7) is reported as 450 nM and the “Primary Screen (SH-SY5Y) sAPPα” value (sAPPα in SH-SY5Y cells; ↑ increase) is reported as “↑>10%”. For the same molecule, the “Aβ40/42 ratio in vivo” value (AD model mouse) was “not changed”, the sAPPα in vivo (AD model mouse) was “increased significantly” and the “sAPPα/Aβ1-42 ratio in vivo” value (AD model mouse) was “not increased”. The inhibition at 10 µM (CYP2C19; 10 μM) was 6.4%, the inhibition at 30 µM (CYP2C19; 30 μM) was 0% and the “Target 5-HT3” value (5-HT3) was 3 nM. The inhibition at 10 µM (CYP2D6; 10 μM) was 17.4%, the inhibition at 30 µM (CYP2D6; 30 μM) was 38% and the Plasma binding [1] was 70%. The microsomal CLint at 1 μM (in vitro; [3]) was 43.5 µL/min/mg, the half-life at 1 μM (in vitro; dog, microsomes, NADPH-Dependent T1/2) was 0.885 h and the microsomal CLint at 1 μM (in vitro; [4]) was less than 9.6 µL/min/mg. For the same molecule, the half-life at 1 μM (in vitro; dog, microsomes, NADPH-Free T1/2) was greater than 4 h, the half-life at 1 μM (in vitro; human, microsomes) was greater than 4 h and the microsomal CLint at 1 μM (in vitro; human, microsomes) was less than 9.6 µL/min/mg. The “NADPH-Free CLint” value (in vitro; human, microsomes, 1 μM) was less than 9.6 µL/min/mg, the “NADPH-Free T1/2” value (in vitro; human, microsomes, 1 μM) was greater than 4 h and the microsomal CLint at 1 μM (in vitro; [5]) was 367 µL/min/mg. It also gave a half-life at 1 μM (in vitro; rat, microsomes, NADPH-Dependent T1/2) of 0.105 h, a microsomal CLint at 1 μM (in vitro; [6]) of less than 9.6 µL/min/mg and a half-life at 1 μM (in vitro; rat, microsomes, NADPH-Free T1/2) greater than 4 h. For the same molecule, the “Secondary Screen (CHO-7W) sAPPα” value ([2]; ↑ increase) was “↑>10%”, the “Secondary Screen (CHO-7W) sAppα/Aβ” value ([2]; ↑ increase of ratio) was “↑>30%” and the “Secondary Screen (CHO-7W) Aβ1-42” value ([2]; ↓ decrease) was “↓>10%”. For the same molecule, the inhibition at 10 µM (CYP1A2; 10 μM) was 1%, the inhibition at 30 µM (CYP1A2; 30 μM) was 1% and the “synaptic load / synaptic density in hippocampus” value (AD mouse model) was “restore synaptic density; also recorded: restored synaptic load”. The “Target APP” value (APP) was 1 to 10 µM, the inhibition at 10 µM (CYP2C9; 10 μM) was 15.9% and the inhibition at 30 µM (CYP2C9; 30 μM) was 23.3%. The inhibition at 10 µM (CYP3A4; [7]) was 0%, the inhibition at 10 µM (CYP3A4; [8]) was 0.63% and the inhibition at 30 µM (CYP3A4; [7]) was 6.6%. For the same molecule, the inhibition at 30 µM (CYP3A4; [8]) was 10.5%.
In the case of `CC(=O)CC(c1ccccc1)c1c(O)c2ccccc2oc1=O` (centres unmarked) [warfarin], the microsomal CLint at 1 μM (in vitro; [3]) is reported as less than 9.6 µL/min/mg, the microsomal CLint at 1 μM (in vitro; [4]) is reported as less than 9.6 µL/min/mg and the recovery (in vitro; human) is reported as 99.7%. The microsomal CLint at 1 μM (in vitro; human, microsomes) was less than 9.6 µL/min/mg, the “NADPH-Free CLint” value (in vitro; human, microsomes, 1 μM) was less than 9.6 µL/min/mg and the microsomal CLint at 1 μM (in vitro; [5]) was less than 9.6 µL/min/mg. For the same molecule, the microsomal CLint at 1 μM (in vitro; [6]) was less than 9.6 µL/min/mg.

From patent publication US20190134000A1, “COMPOUNDS TO PROMOTE NORMAL PROCESSING OF APP” (Buck Institute for Research on Aging, priority 2016, published 2019)
